Source: article PMC7396997, “Discovery of 4-Anilinoquinolinylchalcone Derivatives as Potential NRF2 Activators” (Molecules, 2020)
Where “and” joins values, the source holds several entries; their conditions need not be identical. Equal entries are not always repeated. Structures can show the parent of a compound that is named as a salt. Where two headings read alike, the source gives them in different places.

Tests used:
NRF2 = test: ARE-driven luciferase reporter assay (NRF2 activity) in HaCaT/ARE stable cells; format: cell-based, human; details: for activity at 10 µM: HaCaT, read-out: % of Relative NRF2 Activity in HaCaT Cell; for activity at 10 µM / % of Relative NRF2 Activity in HaCaT Cell: 24 h (b12; method b59 says 18 h), luciferase normalised to cell viability, DMSO control = 100%, 10 μM; for Emax of NRF2 promoter activity / EC50: HaCaT/ARE cells, 18 h, dose-response; for EC50: read-out: EC50 of NRF2 promoter activity
Source text: In this study, we used a stable ARE-driven reporter system to screen the potential NRF2 activators.

HaCaT/ARE cells = test: Cell viability (resazurin) in the reporter screen; details: 10 μM; in % (unit assumed)
Method: Immortalized human keratinocytes HaCaT were cultured in the Dulbecco’s modified Eagle’s medium (DMEM; Gibco BRL, Grand Island, NY, USA) with 10% heat-inactivated fetal bovine serum (HyClone, Logan, UT, USA), penicillin (100 U/mL), and streptomycin (100 μg/mL) in a humidified incubator with 5% CO2. HaCaT/ARE stable cells were grown in DMEM supplemented with 100 μg/mL of hygromycin.
HaCaT/ARE stable cells were seeded (1 × 10^4 cells/well) in a 96 well plate, then were treated with indicated concentrations of compounds for 18 h. At the assay time point, resazurin (Cayman Chemical, Ann Arbor, MI, USA) was added to a final concentration of 0.1 mg/mL and further incubated for 4 h at 37 °C. Fluorescence of the reduced resazurin (ex/em: 530 nm/590 nm) was measured from the culture supernatant by using a Synergy HT Multi-Mode Reader (BioTek, Winooski, VT, USA) to determine cell viability. The cells were then harvested for luciferase activity measurements according to the manufacturer’s protocol (Promega Corporation, Madison, WI, USA). Relative luciferase activity was calculated by normalizing luciferase activity to cell viability, and DMSO solvent control was used as 100% activity.

[1] = Cytotoxicity, 72 h resazurin cell viability assay; format: cell-based, human; details: human
Method: (§1) Cells were seeded in a 96-well plate contained 100 μL culture medium in triplicate and treated with several compounds for 72 h. At the assay time point, resazurin (Cayman Chemical) was added and further incubated for 4 h at 37 °C. Fluorescence of the reduced resazurin was measured as described previously.
(§2) Figure 3 The cytotoxicity of 12b, 13b, and 14b in HaCaT cells. HaCaT cells were treated with indicated concentrations of these three compounds for 72 h. Cell viability was determined by a resazurin assay as described in the Materials and Methods section. Data presented as mean ± SD from three independent experiments.

GCLM and NQO1 = test system: GCLM and NQO1; design: method as in PMID 21539383; details: small intestine; cited from earlier work
HaCaT cells = test: Cytotoxicity, 72 h resazurin cell viability assay; format: cell-based, human
Method: as §1, §2

| Compound | Cell Viability (HaCaT/ARE cells) | % of Relative NRF2 Activity in HaCaT Cell (NRF2) | other results |
| --- | --- | --- | --- |
| C/C(=N\OCCCN(C)C)c1ccc(Nc2cc(/C=C/C(=O)c3ccccc3)nc3ccccc23)cc1 [12e, (E)-3-{4-{{4-{(E)-1-{[3-(dimethylamino)propoxy]imino}ethyl}phenyl}-amino}quinolin-2-yl}-1-phenylprop-2-en-1-one] | 69.5 ± 0.9 |  | activity at 10 µM (NRF2; Homo sapiens): 95% |
| CC(=O)c1ccc(Nc2cc(/C=C/C(=O)c3ccccc3)nc3ccccc23)cc1 [12b, (E)-3-{4-[(4-acetylphenyl)amino]quinolin-2-yl}-1-phenylprop-2-en-1-one] | 71.2 ± 1.8 |  | Emax of NRF2 promoter activity (NRF2): 692.8±53.3%; activity at 10 µM (NRF2; Homo sapiens): 394%; EC50 (NRF2; Homo sapiens): 0.85 ± 0.04 µM; CC50 at 72 h [1]: 9.3 µM |
| O=C(/C=C/c1cc(Nc2ccccc2)c2ccccc2n1)c1ccccc1 [12a, (E)-1-phenyl-3-[4-(phenylamino)quinolin-2-yl]prop-2-en-1-one] | 67.65 ± 0.6 |  | activity at 10 µM (NRF2; Homo sapiens): 7% |
| C/C(=N\OCCN)c1ccc(Nc2cc(/C=C/C(=O)c3ccccc3)nc3ccccc23)cc1 [12d] | 68.4 ± 1.3 |  | activity at 10 µM (NRF2; Homo sapiens): 287% |
| CCN(CC)CCOC(=O)c1ccc(Nc2cc(/C=C/C(=O)c3ccc(F)cc3)nc3ccccc23)cc1 (as salt: hydrochloride) [13h, 2-(Diethylamino)ethyl (E)-4-{{2-[3-(4-fluorophenyl)-3-oxoprop-1-en-1-yl]-quinolin-4-yl}amino}benzoate] |  |  | melting point: 135.4 to 135.8 °C |
| COc1ccc(/C=C/C(=O)c2c(O)cc(OC)cc2OC)cc1 [Flavokawain A, reference compound] | 95.9 ± 1.6 |  |  |
| CCN(CC)CCOC(=O)c1ccc(Nc2cc(/C=C/C(=O)c3ccc(OC)cc3)nc3ccccc23)cc1 (as salt: hydrochloride) [14h, 2-(Diethylamino)ethyl (E)-4-{{2-[3-(4-methoxyphenyl)-3-oxoprop-1-en-1-yl]-quinolin-4-yl}amino}benzoate] |  |  | melting point: 158.7 to 159.3 °C |
| (E)-N-[2-(Diethylamino)ethyl]-4-{{2-[3-(4-fluorophenyl)-3-oxoprop-1-en-1-yl]quinolin-4-yl}amino}benzamide [13g] | 78.7 ± 0.5 | 5% and 5.1 ± 0.42% |  |
| (E)-3-{4-{{4-{(E)-1-[(2-Aminoethoxy)imino]ethyl}phenyl}amino}quinolin-2-yl}-1-(4-fluorophenyl)prop-2-en-1-one [13d] |  | 1697% and 1697.3 ± 39.8% |  |
| (E)-3-{4-{{4-{(E)-1-[(2-Aminoethoxy)imino]ethyl}phenyl}amino}quinolin-2-yl}-1-(4-methoxyphenyl)prop-2-en-1-one [14d] |  | 229% and 229.4 ± 68.4% |  |
| (E)-1-(4-Fluorophenyl)-3-[4-(phenylamino)quinolin-2-yl]prop-2-en-1-one [13a] |  | 6% and 5.5 ± 0.17% |  |
| (E)-N-[2-(Diethylamino)ethyl]-4-{{2-[3-(4-methoxyphenyl)-3-oxoprop-1-en-1-yl]quinolin-4-yl}amino}benzamide [14g] | 77.6 ± 1.5 | 5% and 5.1 ± 0.18% |  |
| (E)-3-{4-{{4-{(E)-1-{[2-(Dimethylamino)ethoxy]imino}ethyl}phenyl}-amino}quinolin-2-yl}-1-(4-fluorophenyl)prop-2-en-1-one [13e] |  | 2145% and 2144.7 ± 168.6% |  |
| CCN(CC)CCOC(=O)c1ccc(Nc2cc(/C=C/C(=O)c3ccccc3)nc3ccccc23)cc1 [12h, 2-(Diethylamino)ethyl (E)-4-{[2-(3-oxo-3-phenylprop-1-en-1-yl)quinolin-4-yl]amino}benzoate] | 71.1 ± 1.2 |  |  |
| O=C(/C=C/c1cc(Nc2ccccc2)c2ccccc2n1)c1ccccc1 (as salt: hydrochloride) [12a, (E)-1-phenyl-3-[4-(phenylamino)quinolin-2-yl]prop-2-en-1-one] |  |  | melting point: 238.5 to 239.2 °C |
| CCN(CC)CCNC(=O)c1ccc(Nc2cc(/C=C/C(=O)c3ccc(F)cc3)nc3ccccc23)cc1 [14f] | 66.3 ± 2.6 | 6.0 ± 0.3% | activity at 10 µM (NRF2; Homo sapiens): 6% |
| CC(C)(C)c1cc(O)ccc1O [t-BHQ, tert-Butyl hydroquinone, reference compound] | 97.7 ± 1.5 | 1880% and 1880.4 ± 97.2% |  |

| Compound | Cell Viability (HaCaT/ARE cells) | % of Relative NRF2 Activity in HaCaT Cell (NRF2) | other results |
| --- | --- | --- | --- |
| CCN(CC)CCNC(=O)c1ccc(Nc2cc(/C=C/C(=O)c3ccc(OC)cc3)nc3ccccc23)cc1 [13f] | 88.7 ± 1.9 |  |  |
| CC(=O)c1ccc(Nc2cc(/C=C/C(=O)c3ccccc3)nc3ccccc23)cc1 (as salt: hydrochloride) [12b, (E)-3-{4-[(4-acetylphenyl)amino]quinolin-2-yl}-1-phenylprop-2-en-1-one] |  |  | melting point: 248.7 to 249.2 °C |
| O=C(O)c1ccc(Nc2cc(/C=C/C(=O)c3ccccc3)nc3ccccc23)cc1 (as salt: hydrochloride) [12c, (E)-4-{[2-(3-oxo-3-phenylprop-1-en-1-yl)quinolin-4-yl]amino}benzoic acid] |  |  | melting point: 298.3 to 298.9 °C |
| COc1ccccc1C(=O)/C=C/c1ccccc1C(F)(F)F [Compound 1, (E)-1-(2-methoxyphenyl)-3-[2-(trifluoromethyl)phenyl]prop-2-en-1-one] |  |  | expression of GCLM compared to sulforaphane (GCLM and NQO1): 3 fold; expression of NQO1 compared to sulforaphane (GCLM and NQO1): 5 fold |
| CCN(CC)CCOC(=O)c1ccc(Nc2cc(/C=C/C(=O)c3ccccc3)nc3ccccc23)cc1 (as salt: hydrochloride) [12h, 2-(Diethylamino)ethyl (E)-4-{[2-(3-oxo-3-phenylprop-1-en-1-yl)quinolin-4-yl]amino}benzoate] |  |  | melting point: 158.7 to 159.3 °C |
| C/C(=N\OCCN)c1ccc(Nc2cc(/C=C/C(=O)c3ccccc3)nc3ccccc23)cc1 (as salt: hydrochloride) [12d] |  |  | melting point: 200.2 to 201.5 °C |
| C/C(=N\OCCCN(C)C)c1ccc(Nc2cc(/C=C/C(=O)c3ccccc3)nc3ccccc23)cc1 (as salt: hydrochloride) [12e, (E)-3-{4-{{4-{(E)-1-{[3-(dimethylamino)propoxy]imino}ethyl}phenyl}-amino}quinolin-2-yl}-1-phenylprop-2-en-1-one] |  |  | melting point: 155.6 to 156.6 °C |
| (E)-4-({2-[3-(4-Fluorophenyl)-3-oxoprop-1-en-1-yl]quinolin-4-yl}amino)-benzoic acid [13c] | 74.5 ± 1.1 | 147% and 147.3 ± 51.7% |  |
| (E)-4-{{2-[3-(4-Methoxyphenyl)-3-oxoprop-1-en-1-yl]quinolin-4-yl}-amino}benzoic acid [14c] | 70.8 ± 1.9 | 212% and 212.6 ± 93.6% |  |
| (E)-1-(4-Methoxyphenyl)-3-[4-(phenylamino)quinolin-2-yl]prop-2-en-1-one [14a] |  | 7% and 7.1 ± 1.3% |  |
| CCN(CC)CCNC(=O)c1ccc(Nc2cc(/C=C/C(=O)c3ccccc3)nc3ccccc23)cc1 [12f] | 78.8 ± 0.1 |  | activity at 10 µM (NRF2; Homo sapiens): 26% |
| CCN(CC)CCOC(=O)c1ccc(Nc2cc(/C=C/C(=O)c3ccc(F)cc3)nc3ccccc23)cc1 [13h, 2-(Diethylamino)ethyl (E)-4-{{2-[3-(4-fluorophenyl)-3-oxoprop-1-en-1-yl]-quinolin-4-yl}amino}benzoate] | 82.7 ± 1.7 |  |  |
| O=C(O)c1ccc(Nc2cc(/C=C/C(=O)c3ccccc3)nc3ccccc23)cc1 [12c, (E)-4-{[2-(3-oxo-3-phenylprop-1-en-1-yl)quinolin-4-yl]amino}benzoic acid] | 81.4 ± 0.8 |  | activity at 10 µM (NRF2; Homo sapiens): 75% |
| CCN(CC)CCOC(=O)c1ccc(Nc2cc(/C=C/C(=O)c3ccc(OC)cc3)nc3ccccc23)cc1 [14h, 2-(Diethylamino)ethyl (E)-4-{{2-[3-(4-methoxyphenyl)-3-oxoprop-1-en-1-yl]-quinolin-4-yl}amino}benzoate] | 76.8 ± 0.2 |  | activity at 10 µM (NRF2; Homo sapiens): 127% |
| C/C(=N\OCCCN(C)C)c1ccc(Nc2cc(/C=C/C(=O)c3ccc(F)cc3)nc3ccccc23)cc1 [14e] | 76.7 ± 0.2 |  | activity at 10 µM (NRF2; Homo sapiens): 193% |
| (E)-3-{4-[(4-Acetylphenyl)amino]quinolin-2-yl}-1-(4-methoxyphenyl)prop-2-en-1-one [14b] |  | 937% and 936.5 ± 39.8% | Emax of NRF2 promoter activity (NRF2): 748.5±73.6%; EC50 (NRF2): 1.58 ± 0.15 µM; CC50 (HaCaT cells): 28.4 µM |
